Measurements from US8658646B2, “Pyrrolopyrazine kinase inhibitors” (Hoffmann-LaRoche Inc., priority 2011, dated 2014).

Target: T1, recombinant human SYK360-635 (Homo sapiens, UniProt P43405)
T1 construct: made in house
Assay: Determination of IC50 of Spleen Tyrosine Kinase (SYK) inhibition, 33P ATP filtration assay
Format: biochemical
Settings: SYK aa 360-635 0.5 nM; ATP 20 μM, peptide 5 μM, 0.1% BSA; read-out: SYK_ENZYME_FILTRATION/v1, BSA

| SMILES | IC50 [nM] |
| --- | --- |
| Cc1ccc2c(-c3cnc4[nH]cc(C(=O)NC5(C)CCNC5)c4n3)n[nH]c2c1 (stereo not shown) [Example I-431, 2-(6-Methyl-1H-indazol-3-yl)-5H-pyrrolo[2,3-b]pyrazine-7-carboxylic acid (3-methyl-pyrrolidin-3-yl)-amide] | 20.7 |
| Cn1nc(-c2cnc3[nH]cc(C(=O)Nc4ccccc4)c3n2)c2ccc(Cl)cc21 [Example I-396, 2-(6-Chloro-1-methyl-1H-indazol-3-yl)-5H-pyrrolo[2,3-b]pyrazine-7-carboxylic acid phenylamide] | > 10000 |
| Cc1ccc2c(-c3cnc4[nH]cc(C(=O)NC(C)(C)CO)c4n3)nn(C)c2c1 [Example I-368, 2-(1,6-Dimethyl-1H-indazol-3-yl)-5H-pyrrolo[2,3-b]pyrazine-7-carboxylic acid (2-hydroxy-1,1-dimethyl-ethyl)-amide] | 8.95 |
| Cc1ccc2c(-c3cnc4[nH]cc(C(=O)NC(C)(C)CN(C)C)c4n3)n[nH]c2c1 [Example I-436, 2-(6-Methyl-1H-indazol-3-yl)-5H-pyrrolo[2,3-b]pyrazine-7-carboxylic acid (2-dimethylamino-1,1-dimethyl-ethyl)-amide] | 47.9 |
| Cn1nc(-c2cnc3[nH]cc(C(=O)NC4CCCC(NC(=O)OC(C)(C)C)C4)c3n2)c2ccc(Cl)cc21 (stereo not shown) [Example I-442, (3-{[2-(6-Chloro-1-methyl-1H-indazol-3-yl)-5H-pyrrolo[2,3-b]pyrazine-7-carbonyl]-amino}-cyclohexyl)-carbamic acid tert-butyl ester] | 879 |
| CC(C)(C)NC(=O)c1c[nH]c2ncc(-c3nn(CC4CCNC4)c4ccc(OC(F)F)cc34)nc12 (stereo not shown) [Example I-265, 2-(5-Difluoromethoxy-1-pyrrolidin-3-ylmethyl-1H-indazol-3-yl)-5H-pyrrolo[2,3-b]pyrazine-7-carboxylic acid tert-butylamide] | 8.62 |
| C#CC1CN(C(=O)c2c[nH]c3ncc(-c4nn(C)c5cc(F)ccc45)nc23)C1 [Example I-360, (3-Ethynyl-azetidin-1-yl)-[2-(6-fluoro-1-methyl-1H-indazol-3-yl)-5H-pyrrolo[2,3-b]pyrazin-7-yl]-methanone] | 1550 |
| CC(C)NC(=O)c1c[nH]c2ncc(-c3nn(C)c4ccc(C(C)O)cc34)nc12 (stereo not shown) [Example I-269, 2-[5-(1-Hydroxy-ethyl)-1-methyl-1H-indazol-3-yl]-5H-pyrrolo[2,3-b]pyrazine-7-carboxylic acid isopropylamide] | 22.1 |
| Cc1ccc2c(-c3cnc4[nH]cc(C(=O)NC(C)(C)CN)c4n3)n[nH]c2c1 [Example I-435, 2-(6-Methyl-1H-indazol-3-yl)-5H-pyrrolo[2,3-b]pyrazine-7-carboxylic acid (2-amino-1,1-dimethyl-ethyl)-amide] | 16.7 |
| NC1CCC(NC(=O)c2c[nH]c3ncc(-c4nn(C5CCNCC5)c5cc(F)ccc45)nc23)C1 (stereo not shown) [Example I-267, 2-(6-Fluoro-1-piperidin-4-yl-1H-indazol-3-yl)-5H-pyrrolo[2,3-b]pyrazine-7-carboxylic acid (3-amino-cyclopentyl)-amide] | 30.3 |
| Cn1nc(-c2cnc3[nH]cc(C(=O)NC(CO)CO)c3n2)c2ccc(Cl)cc21 [Example I-316, 2-(6-Chloro-1-methyl-1H-indazol-3-yl)-5H-pyrrolo[2,3-b]pyrazine-7-carboxylic acid (2-hydroxy-1-hydroxymethyl-ethyl)-amide] | 14.6 |
| Cc1ccc2c(-c3cnc4[nH]cc(C(=O)NC(C)(C)C5CC5)c4n3)n[nH]c2c1 [Example I-433, 2-(6-Methyl-1H-indazol-3-yl)-5H-pyrrolo[2,3-b]pyrazine-7-carboxylic acid (1-cyclopropyl-1-methyl-ethyl)-amide] | 8.55 |
| Cc1cccc2c(-c3cnc4[nH]cc(C(=O)NC(C)(C)CO)c4n3)n[nH]c12 [Example I-372, 2-(7-Methyl-1H-indazol-3-yl)-5H-pyrrolo[2,3-b]pyrazine-7-carboxylic acid (2-hydroxy-1,1-dimethyl-ethyl)-amide] | 5.12 |
| Cn1nc(-c2cnc3[nH]cc(C(=O)NC(C)(C)CO)c3n2)c2ccc(C#N)cc21 [Example I-398, 2-(6-Cyano-1-methyl-1H-indazol-3-yl)-5H-pyrrolo[2,3-b]pyrazine-7-carboxylic acid (2-hydroxy-1,1-dimethyl-ethyl)-amide] | 12.2 |
| Cn1nc(-c2cnc3[nH]cc(C(=O)NC(C)(C)CN)c3n2)c2ccc(Cl)cc21 [Example I-397, 2-(6-Chloro-1-methyl-1H-indazol-3-yl)-5H-pyrrolo[2,3-b]pyrazine-7-carboxylic acid (2-amino-1,1-dimethyl-ethyl)-amide] | 219 |

Continued, values first:

| IC50 [nM] | SMILES |
| --- | --- |
| 19 | Cn1nc(-c2cnc3[nH]cc(C(=O)NC(C)(C)C)c3n2)c2cccnc21 [Example I-373, 2-(1-Methyl-1H-pyrazolo[3,4-b]pyridin-3-yl)-5H-pyrrolo[2,3-b]pyrazine-7-carboxylic acid tert-butylamide] |
| 4.78 | CCc1ccc2c(-c3cnc4[nH]cc(C(=O)NC(C)(C)C)c4n3)nn(C)c2c1 [Example I-367, 2-(6-Ethyl-1-methyl-1H-indazol-3-yl)-5H-pyrrolo[2,3-b]pyrazine-7-carboxylic acid tert-butylamide] |
| 6.85 | Cn1nc(-c2cnc3[nH]cc(C(=O)NC(C)(C)C)c3n2)c2cc(C#N)ccc21 [Example I-260, 2-(5-Cyano-1-methyl-1H-indazol-3-yl)-5H-pyrrolo[2,3-b]pyrazine-7-carboxylic acid tert-butylamide] |
| 607 | Cn1nc(-c2cnc3[nH]cc(C(=O)NC4(C(C)(C)O)CCC4)c3n2)c2ccc(F)cc21 [Example I-255, 2-(6-Fluoro-1-methyl-1H-indazol-3-yl)-5H-pyrrolo[2,3-b]pyrazine-7-carboxylic acid [1-(1-hydroxy-1-methyl-ethyl)-cyclobutyl]-amide] |
| 1040 | CC(C)(C)NC(=O)c1c[nH]c2ncc(-c3cccc4ccncc34)nc12 [Example I-444, 2-Isoquinolin-8-yl-5H-pyrrolo[2,3-b]pyrazine-7-carboxylic acid tert-butylamide] |
| 43.4 | CC(C)(C)NC(=O)c1c[nH]c2ncc(-n3ncc4cc(F)ccc43)nc12 [Example I-326, 2-(5-Fluoro-indazol-1-yl)-5H-pyrrolo[2,3-b]pyrazine-7-carboxylic acid tert-butylamide] |
| 8.05 | Cn1nc(-c2cnc3[nH]cc(C(=O)NC(C)(CO)CO)c3n2)c2ccc(F)cc21 [Example I-383, 2-(6-Fluoro-1-methyl-1H-indazol-3-yl)-5H-pyrrolo[2,3-b]pyrazine-7-carboxylic acid (2-hydroxy-1-hydroxymethyl-1-methyl-ethyl)-amide] |
| 8 | Cc1cccc2c(-c3cnc4[nH]cc(C(=O)NC(C)(C)C)c4n3)n[nH]c12 [Example I-369, 2-(7-Methyl-1H-indazol-3-yl)-5H-pyrrolo[2,3-b]pyrazine-7-carboxylic acid tert-butylamide] |
| 13.3 | Cc1ccc2c(-c3cnc4[nH]cc(C(=O)NC(C)(C)C)c4n3)nn(CCCN(C)C)c2c1 [Example I-427, 2-[1-(3-Dimethylamino-propyl)-6-methyl-1H-indazol-3-yl]-5H-pyrrolo[2,3-b]pyrazine-7-carboxylic acid tert-butylamide] |
| 107 | CC(C)(C)NC(=O)c1c[nH]c2ncc(-n3ncc4ccc(F)cc43)nc12 [Example I-332, 2-(6-Fluoro-indazol-1-yl)-5H-pyrrolo[2,3-b]pyrazine-7-carboxylic acid tert-butylamide] |
| 52.7 | Cn1nc(-c2cnc3[nH]cc(C(=O)NC(C)(C)CCCN)c3n2)c2ccc(F)cc21 [Example I-408, 2-(6-Fluoro-1-methyl-1H-indazol-3-yl)-5H-pyrrolo[2,3-b]pyrazine-7-carboxylic acid (4-amino-1,1-dimethyl-butyl)-amide] |
| 16.4 | Cn1nc(-c2cnc3[nH]cc(C(=O)NC(C)(C)C)c3n2)c2ccc(S(C)(=O)=O)cc21 [Example I-270, 2-(6-Methanesulfonyl-1-methyl-1H-indazol-3-yl)-5H-pyrrolo[2,3-b]pyrazine-7-carboxylic acid tert-butylamide] |
| 945 | Cn1nc(-c2cnc3[nH]cc(C(=O)NC(C)(C)C(=O)O)c3n2)c2ccc(F)cc21 [Example I-382, 2-{[2-(6-Fluoro-1-methyl-1H-indazol-3-yl)-5H-pyrrolo[2,3-b]pyrazine-7-carbonyl]-amino}-2-methyl-propionic acid] |
| 214 | CONC(=O)c1c[nH]c2ncc(-c3nn(C)c4cc(F)ccc34)nc12 [Example I-361, 2-(6-Fluoro-1-methyl-1H-indazol-3-yl)-5H-pyrrolo[2,3-b]pyrazine-7-carboxylic acid methoxy-amide] |
| 988 | CC(C)(C)NC(=O)c1c[nH]c2ncc(-n3ncc4ccc(C(F)(F)F)cc43)nc12 [Example I-330, 2-(6-Trifluoromethyl-indazol-1-yl)-5H-pyrrolo[2,3-b]pyrazine-7-carboxylic acid tert-butylamide] |
| 322 | Cn1nc(-c2cnc3[nH]cc(C(=O)NC(C)(C)CCN)c3n2)c2ccc(F)cc21 [Example I-415, 2-(6-Fluoro-1-methyl-1H-indazol-3-yl)-5H-pyrrolo[2,3-b]pyrazine-7-carboxylic acid (3-amino-1,1-dimethyl-propyl)-amide] |
| 17.6 | CC(O)CCn1nc(-c2cnc3[nH]cc(C(=O)NC(C)(C)CO)c3n2)c2ccc(F)cc21 (stereo not shown) [Example I-462, 2-(6-Fluoro-1-(3-hydroxybutyl)-1H-indazol-3-yl)-N-(1-hydroxy-2-methylpropan-2-yl)-5H-pyrrolo[3,2-b]pyrazine-7-carboxamide] |
| 63.9 | Cc1ccc2c(cnn2-c2cnc3[nH]cc(C(=O)NC(C)(C)C)c3n2)c1 [Example I-333, 2-(5-Methyl-indazol-1-yl)-5H-pyrrolo[2,3-b]pyrazine-7-carboxylic acid tert-butylamide] |
| 42.9 | Cn1nc(-c2cnc3[nH]cc(C(=O)NC(C)(C)C)c3n2)c2ncccc21 [Example I-259, 2-(1-Methyl-1H-pyrazolo[4,3-b]pyridin-3-yl)-5H-pyrrolo[2,3-b]pyrazine-7-carboxylic acid tert-butylamide] |
